Results taken from US10583137B2, “Triazole DAGLα inhibitors” (THE SCRIPPS RESEARCH INSTITUTE, priority 2015, dated 2020).

How the values were obtained:
BCHE = BCHE (Mus musculus (Mouse), UniProt Q03311); test: in vivo ABPP coupled to quantitative mass spectrometry (FP-biotin, ReDiMe); settings: brain proteomes of treated mice
Procedure: (§1) The extent of these target profiles were confirmed by performing ABPP coupled to high-resolution, quantitative mass spectrometry (MS). Briefly, brain proteomes from compound and vehicle-treated mice were incubated with the serine hydrolase directed activity-based probe FP-biotin, and probe-labeled enzymes were enriched by streptavidin chromatography, digested on bead with trypsin, and the resulting tryptic peptides modified by reductive dimethylation (ReDiMe) of lysine residues using isotopically heavy and light formaldehyde, respectively. In these experiments, inhibited serine hydrolases are identified as enzymes showing low heavy/light ReDiMe ratios.

LIPE = LIPE (Mus musculus (Mouse), UniProt P54310); test: as above; settings: brain proteomes of treated mice
Chain of LIPE (P54310 whole entry): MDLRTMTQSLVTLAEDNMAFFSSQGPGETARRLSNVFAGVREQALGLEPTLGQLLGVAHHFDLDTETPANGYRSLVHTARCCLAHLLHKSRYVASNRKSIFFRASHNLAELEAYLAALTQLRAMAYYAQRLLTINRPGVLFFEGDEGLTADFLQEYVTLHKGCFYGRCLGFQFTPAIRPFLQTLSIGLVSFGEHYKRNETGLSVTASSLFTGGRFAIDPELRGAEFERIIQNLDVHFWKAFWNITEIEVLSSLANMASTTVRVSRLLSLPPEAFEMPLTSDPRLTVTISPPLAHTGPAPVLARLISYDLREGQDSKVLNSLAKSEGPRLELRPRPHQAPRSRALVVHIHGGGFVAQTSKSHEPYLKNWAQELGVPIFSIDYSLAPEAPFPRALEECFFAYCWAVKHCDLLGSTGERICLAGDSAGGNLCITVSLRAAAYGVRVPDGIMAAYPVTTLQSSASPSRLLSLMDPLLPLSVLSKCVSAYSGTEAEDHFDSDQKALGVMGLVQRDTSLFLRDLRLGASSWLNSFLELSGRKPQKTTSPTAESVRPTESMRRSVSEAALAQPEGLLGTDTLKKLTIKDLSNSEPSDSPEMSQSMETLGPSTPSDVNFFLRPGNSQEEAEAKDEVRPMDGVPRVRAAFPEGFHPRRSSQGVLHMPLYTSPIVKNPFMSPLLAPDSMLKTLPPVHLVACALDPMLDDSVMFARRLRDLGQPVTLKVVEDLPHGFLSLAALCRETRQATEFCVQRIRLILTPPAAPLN
Procedure: as §1

DAGL enzymes = test: brain proteomes of treated mice conjugated to Cy5 fluorophore by CuAAC; format: in vivo, mouse
ABHD2 = ABHD2 (Mus musculus (Mouse), UniProt Q9QXM0); test: in vivo ABPP coupled to quantitative mass spectrometry (FP-biotin, ReDiMe); settings: brain proteomes of treated mice
Chain of ABHD2 (Q9QXM0 whole entry): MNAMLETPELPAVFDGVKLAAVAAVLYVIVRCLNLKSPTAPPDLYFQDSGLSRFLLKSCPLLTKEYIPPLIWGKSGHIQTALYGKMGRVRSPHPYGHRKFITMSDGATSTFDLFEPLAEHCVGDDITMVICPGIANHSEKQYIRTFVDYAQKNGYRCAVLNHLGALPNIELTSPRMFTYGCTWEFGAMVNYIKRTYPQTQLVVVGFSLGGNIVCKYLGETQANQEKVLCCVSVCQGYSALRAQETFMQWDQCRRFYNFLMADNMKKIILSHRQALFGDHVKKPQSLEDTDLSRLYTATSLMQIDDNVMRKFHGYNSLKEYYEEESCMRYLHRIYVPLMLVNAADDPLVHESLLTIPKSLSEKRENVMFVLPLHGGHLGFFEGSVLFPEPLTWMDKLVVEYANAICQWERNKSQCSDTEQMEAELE
Procedure: as §1

DAGLβ = DAGLβ (Mus musculus (Mouse), UniProt Q91WC9); test: time-course of DAGL inhibition and recovery in mice, competitive ABPP with compound 58 probe; format: in vivo; settings: 3 mg/kg
Chain of DAGLβ (Q91WC9 whole entry): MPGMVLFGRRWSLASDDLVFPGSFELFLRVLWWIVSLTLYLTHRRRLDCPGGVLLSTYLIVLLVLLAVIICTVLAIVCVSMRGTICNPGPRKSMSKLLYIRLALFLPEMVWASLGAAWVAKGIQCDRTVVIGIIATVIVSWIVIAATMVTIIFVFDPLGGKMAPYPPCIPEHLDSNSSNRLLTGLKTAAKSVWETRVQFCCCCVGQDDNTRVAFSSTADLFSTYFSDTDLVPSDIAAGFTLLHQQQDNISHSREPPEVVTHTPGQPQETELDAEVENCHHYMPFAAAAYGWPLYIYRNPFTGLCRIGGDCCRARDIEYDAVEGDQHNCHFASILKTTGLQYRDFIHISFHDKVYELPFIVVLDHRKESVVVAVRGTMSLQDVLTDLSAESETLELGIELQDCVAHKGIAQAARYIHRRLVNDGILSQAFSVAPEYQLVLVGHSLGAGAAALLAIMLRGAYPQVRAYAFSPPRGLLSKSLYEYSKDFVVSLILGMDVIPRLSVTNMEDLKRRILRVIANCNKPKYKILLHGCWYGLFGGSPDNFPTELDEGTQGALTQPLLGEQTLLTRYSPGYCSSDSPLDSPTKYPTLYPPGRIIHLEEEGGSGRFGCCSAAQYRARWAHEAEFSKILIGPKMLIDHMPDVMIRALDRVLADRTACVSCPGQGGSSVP
Procedure: (§2) Inhibition of DAGL in mice with DAGL compounds 14 and 17 was investigated as a function of time as determined by competitive ABPP using the compound 58 probe (1 μM, 30 min).

DAGLα = DAGLα (Mus musculus (Mouse), UniProt Q6WQJ1); test: as above; format: in vivo; settings: 3 mg/kg
Chain of DAGLα (Q6WQJ1 whole entry): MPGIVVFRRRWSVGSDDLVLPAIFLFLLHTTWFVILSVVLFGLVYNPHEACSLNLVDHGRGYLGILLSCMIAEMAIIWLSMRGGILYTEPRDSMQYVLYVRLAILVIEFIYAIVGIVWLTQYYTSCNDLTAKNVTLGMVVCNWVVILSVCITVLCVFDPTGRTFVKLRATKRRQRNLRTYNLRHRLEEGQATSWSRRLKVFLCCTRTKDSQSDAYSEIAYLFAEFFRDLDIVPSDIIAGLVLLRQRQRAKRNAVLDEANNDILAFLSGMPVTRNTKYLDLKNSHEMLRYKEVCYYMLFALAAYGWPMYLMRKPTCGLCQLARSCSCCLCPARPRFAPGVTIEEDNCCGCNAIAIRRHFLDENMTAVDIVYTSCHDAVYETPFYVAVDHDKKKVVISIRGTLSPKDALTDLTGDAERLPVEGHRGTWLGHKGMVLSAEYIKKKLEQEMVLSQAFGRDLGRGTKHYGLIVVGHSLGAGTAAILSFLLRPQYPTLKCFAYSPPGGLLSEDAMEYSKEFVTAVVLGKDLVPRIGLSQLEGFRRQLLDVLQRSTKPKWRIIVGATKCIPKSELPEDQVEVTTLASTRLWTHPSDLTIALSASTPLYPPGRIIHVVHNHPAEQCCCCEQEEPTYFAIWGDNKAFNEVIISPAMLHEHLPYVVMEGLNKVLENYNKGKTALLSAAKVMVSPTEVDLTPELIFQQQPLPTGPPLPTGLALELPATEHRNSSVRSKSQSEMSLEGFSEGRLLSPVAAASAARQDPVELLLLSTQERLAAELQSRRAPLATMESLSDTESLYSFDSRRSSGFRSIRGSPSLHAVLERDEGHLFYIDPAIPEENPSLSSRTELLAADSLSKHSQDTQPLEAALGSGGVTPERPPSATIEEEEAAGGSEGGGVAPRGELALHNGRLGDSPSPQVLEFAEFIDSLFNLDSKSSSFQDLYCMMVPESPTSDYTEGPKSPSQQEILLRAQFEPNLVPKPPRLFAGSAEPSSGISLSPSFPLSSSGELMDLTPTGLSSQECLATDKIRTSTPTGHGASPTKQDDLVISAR
Procedure: as §2

Chain of BCHE (Q03311 30-603 limits assumed): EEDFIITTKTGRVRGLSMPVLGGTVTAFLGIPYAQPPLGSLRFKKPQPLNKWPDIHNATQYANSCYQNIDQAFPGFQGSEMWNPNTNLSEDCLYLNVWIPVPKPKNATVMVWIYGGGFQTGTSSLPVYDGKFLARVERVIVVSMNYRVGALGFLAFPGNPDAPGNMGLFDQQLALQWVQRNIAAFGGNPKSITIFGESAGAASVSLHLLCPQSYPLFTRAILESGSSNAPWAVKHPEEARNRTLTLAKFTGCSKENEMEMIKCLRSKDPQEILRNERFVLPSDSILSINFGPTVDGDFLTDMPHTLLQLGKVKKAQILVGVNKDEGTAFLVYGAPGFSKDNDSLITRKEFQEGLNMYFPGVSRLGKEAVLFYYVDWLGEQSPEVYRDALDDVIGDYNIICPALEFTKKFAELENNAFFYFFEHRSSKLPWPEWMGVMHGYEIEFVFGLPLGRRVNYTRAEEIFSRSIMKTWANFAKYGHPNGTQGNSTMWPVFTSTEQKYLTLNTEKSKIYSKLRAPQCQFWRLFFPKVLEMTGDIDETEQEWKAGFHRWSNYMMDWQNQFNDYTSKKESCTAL

| Structure (SMILES) | heavy/light ReDiMe ratio, BCHE (off-target) (BCHE) | heavy/light ReDiMe ratio, LIPE (off-target) (LIPE) | labeling of DAGL enzymes in brain proteomes of treated mice (DAGL enzymes) | heavy/light ReDiMe ratio, ABHD2 (off-target) (ABHD2) | inhibition of DAGLβ (DAGLβ) | time by which DAGLα enzyme activity recovered (DAGLα) [h] | time to substantial inhibition of DAGLα after administration (DAGLα) [min] |
| --- | --- | --- | --- | --- | --- | --- | --- |
| C#CCO[C@@H]1CC[C@H](Cc2ccccc2)N(C(=O)n2ncc(C(O)(c3ccc(F)cc3)c3ccc(F)cc3)n2)C1 [Compound 14, ((2R,5R)-2-Benzyl-5-(prop-2-ynyloxy)piperidin-1-yl)(4-(bis(4-fluorophenyl)(hydroxy)methyl)-2H-1,2,3-triazol-2-yl)methanone] | < 0.5 | < 0.5 | direct, dose-dependent labeling | – | – | – | – |
| CC(C)(C)OC(=O)N1CCN(C(=O)n2cc(-c3ccc(OC(F)(F)F)cc3)nn2)C(Cc2ccccc2)C1 (stereo not shown) [Compound 17, tert-Butyl 3-benzyl-4-(4-(4-(trifluoromethoxy)phenyl)-1H-1,2,3-triazole-1-carbonyl)piperazine-1-carboxylate] | – | – | – | < 0.5 | inhibited | ≤ 4 | ≤ 30 |
